Data as given in US20250161317A1, “MOLIDUSTAT FORMULATIONS AND METHODS OF USE FOR TREATMENT OF ANEMIA IN CATS” (ELANCO US INC., priority 2022, published 2025).

Experiments:
Format in all cases: in vivo, cat
healthy, adult cats [1] = assay: Tolerability and safety in healthy adult cats, daily oral dosing (Example 3); settings: once daily oral
From the text: (§1) Twenty-two adult cats were randomized to three treatment groups and one control group with 5 and 6 cats/group respectively (3 (2) male/3 female). After a baseline phase of two weeks the cats were orally treated in fasted condition once daily. […] The oily suspensions were in accordance with the oily suspension described in Example 1.
Treatments had no impact on the cats' body weight. None of the findings observed during the physical examinations or general health observations were rated as having a negative impact on the outcome of the study. The most frequently observed findings were vomiting of small amounts of fluid.

Erythropoietin (EPO) = assay: EPO plasma concentrations in healthy adult cats, daily oral dosing; settings: 6 hours post treatment, all study days measured
From the text: (§2) This study evaluated the effects of molidustat on red blood cell parameters in healthy, adult cats, if administered daily via the oral route at different dosages and using different formulations of molidustat sodium. The hematocrit, erythropoietin (EPO) and molidustat plasma concentrations during the treatment phase were examined, with hematocrit representing the main outcome parameter.
as §1
(§3) For evaluation of the hematological parameters blood samples were taken at regular intervals before, during and after the treatment phase. Additionally, plasma samples were collected at study day (SD) 0, SD 7 and SD 23 before and after treatment and analyzed for their concentration of EPO and molidustat.

healthy, adult cats [2] = assay: Pharmacodynamic effects on hematocrit in healthy adult cats, daily oral dosing
From the text: as §2, §1
To keep the application volume per kg bodyweight (BW) consistent for each animal the oily suspension of molidustat was available at two different concentrations (5% and 10%), so that each cat was treated with 0.1 mL/kg BW of the respective formulation.
as §3

[Na+].[O-]c1c(-n2ccnn2)cnn1-c1cc(N2CCOCC2)ncn1 [molidustat sodium, sodium 1-[6-(morpholin-4-yl)pyrimidin-4-yl]-4-(1H-1,2,3-triazol-1-yl)-1H-pyrazol-5-olate]
tolerability and safety (healthy, adult cats [1]; all study groups): very well tolerated and safe
impact on body weight (healthy, adult cats [1]): no impact
EPO concentrations compared to the placebo group (Erythropoietin (EPO)): significantly differed
mean hematocrit compared to placebo (healthy, adult cats [2]; 5 mg/kg once daily oral, at SD 14): significantly higher
mean hematocrit compared to placebo (healthy, adult cats [2]; 10 mg/kg once daily oral, already at SD 7): significantly higher
study day from which mean hematocrit was comparable to placebo group (healthy, adult cats [2]; after cessation of treatment): SD 70
study day on which mean hematocrit returned to levels within reference range (healthy, adult cats [2]; after cessation of treatment): SD 56
hematocrit relative to reference range (healthy, adult cats [2]; all treated animals, for up to 42 days after treatment): increase in hematocrit above the reference range
